Laboratory results taken from patent US20230151057A1, “LACTIC ACID BACTERIA GROWTH PROMOTER” (Asahi Group Holdings, Ltd., priority 2020, published 2023).

Tested on: Lactobacillus gasseri (FERM BP-11331)
Test: Growth-promoting effect on Lactobacillus gasseri in modified MRS medium (particle count)
Assay type: cell-based
Settings: Example 1, peptide 0.25 mg/mL, 37° C., 18 hours; for Particle concentration: inoculum 1.0×10^7 cells/mL; for Rate of increase: control without peptide = 100%
Description: Nitrogen sources in MRS medium were reduced to find a medium composition that achieves a total bacterial count of about 1.0×10^8 cell/mL to 1.0×10^9 cell/mL after culturing of each of the six bacterial strains Lactobacillus gasseri (FERNM BP-11331), Lactobacillus acidophilus (FERM BP-4981), Lactobacillus amylovorus (FERM BP-11255), Lactobacillus curvatus (NITE P-02033), Lactobacillus plantarum, and Lactobacillus brevis. This composition, named “modified MRS medium”, was used for the evaluation. Here, for the composition of the MRS medium, a composition described in a medium catalog provided by BD (Becton, Dickinson and Company) was used as a reference. The compositions of the MRS medium and the modified MRS medium are as follows. By chemical synthesis, 28 kinds of candidate peptides having the sequences shown below were provided. Each candidate peptide was added to the modified MRS medium at 0.25 mg/mL to provide a medium to be evaluated. The lactic acid bacterium Lactobacillus gasseri was inoculated at 1.0×10^7 cells/mL to the provided medium to be evaluated, and culture was carried out at a temperature of 37° C. for a culture period of 18 hours. The resulting culture was collected, and subjected to measurement of the particle concentration (particles/mL) as a characteristic value that can be used as an index of the bacterial cell growth, using a particle count analyzer (CDA-1000, Sysmex). The rate of increase (%) was calculated relative to a control value obtained using a medium to which no peptide was added, which was taken as 100%. Using the dipeptide LF (Leu-Phe) and an equimolar mixture of leucine (L) and phenylalanine (F), culture was carried out in the same manner as in Example 1, and the growth-promoting effects of the dipeptide and the amino acid mixture on the lactic acid bacterium were evaluated. Using a dipeptide (LF) as the peptide, the growth-promoting effect on a lactic acid bacterium was evaluated in the same manner except that the concentration of the dipeptide added was 0.1 mg/mL, 0.25 mg/mL, or 1.0 mg/mL.

HDDKHIIVD (listed as Saccharomyces cerevisiae) [His-Asp-Asp-Lys-His-Ile-Ile-Val-Asp]
Particle concentration: 2.25e+08 mL⁻¹ | Rate of increase: 114%

Ile-Phe [IF]
Particle concentration: 2.01e+08 mL⁻¹ | Rate of increase: 114%

Ile-Pro-Gln [IPQ]
Particle concentration: 1.82e+08 mL⁻¹ | Rate of increase: 99%

Ile-Pro-Gly-Ile (IPGI; listed as Saccharomyces cerevisiae)
Particle concentration: 2.19e+08 mL⁻¹ | Rate of increase: 119%

Ile-Pro-Ile-Gln (IPIQ; listed as Saccharomyces cerevisiae)
Particle concentration: 2.11e+08 mL⁻¹ | Rate of increase: 115%

Ile-Pro-Ile-Thr (IPIT; listed as Saccharomyces cerevisiae)
Rate of increase: 121%

Ile-Pro-Thr [IPT]
Particle concentration: 1.79e+08 mL⁻¹ | Rate of increase: 98%

Ile-Val-Glu [IVE]
Particle concentration: 1.81e+08 mL⁻¹ | Rate of increase: 96%

Leu-Pro-Gln [LPQ]
Particle concentration: 1.97e+08 mL⁻¹ | Rate of increase: 107%

Leu-Pro-Leu-Gly (LPLG; listed as Saccharomyces cerevisiae)
Particle concentration: 2.2e+08 mL⁻¹ | Rate of increase: 120%

Leu-Pro-Thr [LPT]
Particle concentration: 1.9e+08 mL⁻¹ | Rate of increase: 104%

Leu-Pro-Val-Leu (LPVL; listed as Saccharomyces cerevisiae)
Particle concentration: 2.07e+08 mL⁻¹ | Rate of increase: 113%

Leu-Val-Glu [LVE]
Particle concentration: 1.96e+08 mL⁻¹ | Rate of increase: 104%

PNVLPETE (listed as Saccharomyces cerevisiae) [Pro-Asn-Val-Leu-Pro-Glu-Thr-Glu]
Particle concentration: 2e+08 mL⁻¹ | Rate of increase: 101%

Phe-Leu [FL]
Particle concentration: 1.98e+08 mL⁻¹ | Rate of increase: 112%

SEYPPLG (listed as Saccharomyces cerevisiae) [Ser-Glu-Tyr-Pro-Pro-Leu-Gly]
Particle concentration: 2.36e+08 mL⁻¹ | Rate of increase: 119%

Val-Pro-Ile [VPI]
Particle concentration: 2.11e+08 mL⁻¹ | Rate of increase: 112%

Val-Pro-Leu [VPL]
Particle concentration: 2.01e+08 mL⁻¹ | Rate of increase: 107%

Val-Pro-Val-Gly (VPVG; listed as Saccharomyces cerevisiae)
Particle concentration: 1.76e+08 mL⁻¹ | Rate of increase: 102%

WDESRFQ (listed as Saccharomyces cerevisiae) [Trp-Asp-Glu-Ser-Arg-Phe-Gln]
Particle concentration: 2.38e+08 mL⁻¹ | Rate of increase: 120%
